Measured values as given in US9988400B2 (Genentech, Inc., priority 2013, dated 2018).

Target: T1, HEK cells stably transfected with tetracycline inducible hNR1 and hNR2A (Homo sapiens, UniProt Q05586+Q12879)
T1 construct: expressed in transfected cells; host or cells: HEK cells, stably transfected, tetracycline/doxycycline inducible
Experiment: Assay 1: Cell-Based Assay, cytosolic calcium response to positive allosteric modulators (with 30 μM glycine and 300 nM L-glutamate, EC30)
Conditions: Table 2; for EC50: cytosolic calcium response, with 30 μM glycine and 300 nM L-glutamate (EC30), — = no plateau was reached; for Max %: responses scaled relative to 100 μM L-glutamate maximal response (100%) and 0 μM L-glutamate (0%)
Procedure, shortened: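 Cells induced 24 h with 7.5 μg mL^−1 doxycycline plus 500 μM (+)-ketamine, loaded 60 min at 37 °C with calcium dye in Mg-free HBSS (1.8 mM Ca, probenecid, 10 μM (+)-ketamine, pH 7.15). Peak RFU over 5 min after compound addition, scaled to 100 μM L-glutamate (100%) and 0 μM (0%); four-parameter Hill fit for EC50, max % if no plateau.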

T1 sequence (Q12879 23-1464, other chains not shown): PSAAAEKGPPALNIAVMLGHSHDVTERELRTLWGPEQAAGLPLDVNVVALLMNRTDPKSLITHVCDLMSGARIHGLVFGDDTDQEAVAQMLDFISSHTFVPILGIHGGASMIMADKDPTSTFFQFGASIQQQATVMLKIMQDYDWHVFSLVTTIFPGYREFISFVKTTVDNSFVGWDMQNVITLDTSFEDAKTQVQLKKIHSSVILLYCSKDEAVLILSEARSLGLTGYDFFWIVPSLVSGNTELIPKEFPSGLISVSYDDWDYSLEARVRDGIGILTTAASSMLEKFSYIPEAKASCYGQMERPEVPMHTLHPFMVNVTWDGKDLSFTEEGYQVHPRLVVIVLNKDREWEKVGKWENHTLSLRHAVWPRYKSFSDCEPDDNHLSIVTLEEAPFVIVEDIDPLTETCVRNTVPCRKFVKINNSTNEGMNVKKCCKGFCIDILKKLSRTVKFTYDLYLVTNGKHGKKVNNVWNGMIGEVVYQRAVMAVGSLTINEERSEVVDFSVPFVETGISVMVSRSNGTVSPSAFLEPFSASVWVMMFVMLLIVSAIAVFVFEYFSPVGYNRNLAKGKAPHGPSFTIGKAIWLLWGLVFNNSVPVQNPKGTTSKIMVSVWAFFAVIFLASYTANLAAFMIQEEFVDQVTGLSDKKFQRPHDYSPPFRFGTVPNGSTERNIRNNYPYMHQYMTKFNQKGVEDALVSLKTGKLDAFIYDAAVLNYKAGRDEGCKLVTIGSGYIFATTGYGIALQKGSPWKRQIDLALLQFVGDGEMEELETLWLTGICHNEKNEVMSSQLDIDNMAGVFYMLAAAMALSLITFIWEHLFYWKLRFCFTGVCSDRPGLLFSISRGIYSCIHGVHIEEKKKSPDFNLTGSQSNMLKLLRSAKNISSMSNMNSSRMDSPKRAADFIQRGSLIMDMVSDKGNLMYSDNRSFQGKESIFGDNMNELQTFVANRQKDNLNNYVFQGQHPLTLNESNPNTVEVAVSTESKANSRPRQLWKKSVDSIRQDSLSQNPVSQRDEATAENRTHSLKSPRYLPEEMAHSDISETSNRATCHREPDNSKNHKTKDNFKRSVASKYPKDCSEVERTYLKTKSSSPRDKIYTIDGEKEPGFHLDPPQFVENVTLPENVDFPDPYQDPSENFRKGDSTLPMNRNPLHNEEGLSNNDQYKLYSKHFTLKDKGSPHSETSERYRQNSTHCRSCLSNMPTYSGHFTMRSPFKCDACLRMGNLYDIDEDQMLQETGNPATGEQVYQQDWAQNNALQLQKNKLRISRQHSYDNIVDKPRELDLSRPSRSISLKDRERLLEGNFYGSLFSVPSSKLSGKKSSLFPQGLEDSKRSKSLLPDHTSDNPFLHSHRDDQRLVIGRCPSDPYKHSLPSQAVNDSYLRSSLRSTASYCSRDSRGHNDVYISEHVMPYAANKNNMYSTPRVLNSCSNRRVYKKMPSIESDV

EC50 [µM] | Max % [%] | Compound
5.5 | 140 | CCNC(=O)c1c(C2CC2)sc2nc(Cn3nc(C(F)(F)F)cc3C3CC3)cc(=O)n12 [Example 16.6, 2-cyclopropyl-7-((5-cyclopropyl-3-(trifluoromethyl)-1H-pyrazol-1-yl)methyl)-N-ethyl-5-oxo-5H-thiazolo[3,2-a]pyrimidine-3-carboxamide]
36.2 | 67.5 | CCNC(=O)c1c(C2CC2)sc2nc(Cn3nc(C4CC4)cc3C(F)(F)F)cc(=O)n12 [Example 16.7, 2-cyclopropyl-7-((3-cyclopropyl-5-(trifluoromethyl)-1H-pyrazol-1-yl)methyl)-N-ethyl-5-oxo-5H-thiazolo[3,2-a]pyrimidine-3-carboxamide]
 | 40.7 | Cc1sc2nc(Cn3nc(C)c4cc(F)ccc43)cc(=O)n2c1C(C)O (stereo not shown) [Example 18.5, 7-((5-fluoro-3-methyl-1H-indazol-1-yl)methyl)-3-(1-hydroxyethyl)-2-methyl-5H-thiazolo[3,2-a]pyrimidin-5-one]
3.1 | 137 | Cc1sc2nc(Cc3cccc(C#N)c3)cc(=O)n2c1C1CC1CO (stereo not drawn) [Example 20.1, 3-((3-(trans-2-(hydroxymethyl)cyclopropyl)-2-methyl-5-oxo-5H-thiazolo[3,2-a]pyrimidin-7-yl)methyl)benzonitrile]
31.2 | 78.7 | Cc1sc2nc(Cc3ccc(C(F)(F)F)cc3)cc(=O)n2c1C1CC1CO (stereo not shown) [Example 20.11, 3-(2-(hydroxymethyl)cyclopropyl)-2-methyl-7-(4-(trifluoromethyl)benzyl)-5H-thiazolo[3,2-a]pyrimidin-5-one]
 | 96.6 | CNC(=O)c1c(C)sc2nc(Cc3cccc(C#N)c3)cc(=O)n12 [Example 21.1, 7-(3-cyanobenzyl)-N,2-dimethyl-5-oxo-5H-thiazolo[3,2-a]pyrimidine-3-carboxamide]
21.6 | 133 | CNC(=O)c1c(C)sc2nc(Cc3cccc(C#N)c3F)cc(=O)n12 [Example 21.2, 7-(3-cyano-2-fluorobenzyl)-N,2-dimethyl-5-oxo-5H-thiazolo[3,2-a]pyrimidine-3-carboxamide]
7.6 | 131 | CCNC(=O)c1c(C)sc2nc(Cc3cccc(Cl)c3F)cc(=O)n12 [Example 21.3, 7-(3-chloro-2-fluorobenzyl)-N-ethyl-2-methyl-5-oxo-5H-thiazolo[3,2-a]pyrimidine-3-carboxamide]
18.9 | 124 | CCNC(=O)c1c(C)sc2nc(Cc3cccc(C)c3F)cc(=O)n12 [Example 21.5, N-ethyl-7-(2-fluoro-3-methylbenzyl)-2-methyl-5-oxo-5H-thiazolo[3,2-a]pyrimidine-3-carboxamide]
45.3 | 114 | CCNC(=O)c1c(C)sc2nc(Cc3cc(C#N)ccc3Cl)cc(=O)n12 [Example 21.6, 7-(2-chloro-5-cyanobenzyl)-N-ethyl-2-methyl-5-oxo-5H-thiazolo[3,2-a]pyrimidine-3-carboxamide]
 | 100 | CCNC(=O)c1c(C)sc2nc(Cc3cccc(C(F)(F)F)c3)cc(=O)n12 [Example 21.7, N-ethyl-2-methyl-5-oxo-7-(3-(trifluoromethyl)benzyl)-5H-thiazolo[3,2-a]pyrimidine-3-carboxamide]

Further lines, the compound ahead of its results:

Compound | EC50 [µM] | Max % [%]
CCNC(=O)c1c(C(F)(F)F)sc2nc(Cn3nc(C(F)(F)F)cc3C3CC3)cc(=O)n12 [Example 16.3, 7-((5-cyclopropyl-3-(trifluoromethyl)-1H-pyrazol-1-yl)methyl)-N-ethyl-5-oxo-2-(trifluoromethyl)-5H-thiazolo[3,2-a]pyrimidine-3-carboxamide] | 1.4 | 160
CCNC(=O)c1c(C(F)(F)F)sc2nc(Cn3nc(C4CC4)cc3C(F)(F)F)cc(=O)n12 [Example 16.4, 7-((3-cyclopropyl-5-(trifluoromethyl)-1H-pyrazol-1-yl)methyl)-N-ethyl-5-oxo-2-(trifluoromethyl)-5H-thiazolo[3,2-a]pyrimidine-3-carboxamide] | 9.2 | 130
CCNC(=O)c1csc2nc(Cn3nc(C(F)(F)F)cc3C3CC3)cc(=O)n12 [Example 16.5, 7-((5-cyclopropyl-3-(trifluoromethyl)-1H-pyrazol-1-yl)methyl)-N-ethyl-5-oxo-5H-thiazolo[3,2-a]pyrimidine-3-carboxamide] | 10.6 | 149
Cc1sc2nc(Cn3ccc(C(F)(F)F)n3)cc(=O)n2c1C#N [Example 17.1, 2-methyl-5-oxo-7-((3-(trifluoromethyl)-1H-pyrazol-1-yl)methyl)-5H-thiazolo[3,2-a]pyrimidine-3-carbonitrile] |  | 107
Cc1sc2nc(Cn3nc(C(F)(F)F)cc3C3CC3)cc(=O)n2c1C#N [Example 17.2, 7-((5-cyclopropyl-3-(trifluoromethyl)-1H-pyrazol-1-yl)methyl)-2-methyl-5-oxo-5H-thiazolo[3,2-a]pyrimidine-3-carbonitrile] | 2 | 119
Cc1sc2nc(Cn3nc(C4CC4)cc3C(F)(F)F)cc(=O)n2c1C#N [Example 17.3, 7-((3-cyclopropyl-5-(trifluoromethyl)-1H-pyrazol-1-yl)methyl)-2-methyl-5-oxo-5H-thiazolo[3,2-a]pyrimidine-3-carbonitrile] |  | 104
Cc1sc2nc(Cn3ccc(C(F)(F)F)n3)cc(=O)n2c1C(C)O (stereo not shown) [Example 18.1, 3-(1-hydroxyethyl)-2-methyl-7-((3-(trifluoromethyl)-1H-pyrazol-1-yl)methyl)-5H-thiazolo[3,2-a]pyrimidin-5-one] |  | 94.8
CC(=O)c1c(C)sc2nc(Cn3nc(C(F)(F)F)cc3C3CC3)cc(=O)n12 [Example 18.2, 3-acetyl-7-((5-cyclopropyl-3-(trifluoromethyl)-1H-pyrazol-1-yl)methyl)-2-methyl-5H-thiazolo[3,2-a]pyrimidin-5-one] | 2.2 | 144
CC(=O)c1c(C)sc2nc(Cn3nc(C4CC4)cc3C(F)(F)F)cc(=O)n12 [Example 18.3, 3-acetyl-7-((3-cyclopropyl-5-(trifluoromethyl)-1H-pyrazol-1-yl)methyl)-2-methyl-5H-thiazolo[3,2-a]pyrimidin-5-one] | 25.4 | 129
Cc1sc2nc(Cn3ccc(C(F)(F)F)n3)cc(=O)n2c1C(C)(C)O [Example 18.4, 3-(2-hydroxypropan-2-yl)-2-methyl-7-((3-(trifluoromethyl)-1H-pyrazol-1-yl)methyl)-5H-thiazolo[3,2-a]pyrimidin-5-one] |  | 127
Cc1sc2nc(C(C)n3nc(C(F)(F)F)cc3C3CC3)cc(=O)n2c1C1(C)CC1CO (stereo not shown) [Example 19.2, 7-(1-(5-cyclopropyl-3-(trifluoromethyl)-1H-pyrazol-1-yl)ethyl)-3-(2-(hydroxymethyl)-1-methylcyclopropyl)-2-methyl-5H-thiazolo[3,2-a]pyrimidin-5-one] |  | 64.2
Cc1sc2nc(Cc3cccc(C#N)c3)c(F)c(=O)n2c1C1CC1CO (stereo not shown) [Example 20.2, 3-((6-fluoro-3-(2-(hydroxymethyl)cyclopropyl)-2-methyl-5-oxo-5H-thiazolo[3,2-a]pyrimidin-7-yl)methyl)benzonitrile] | 7.4 | 145
CNC(=O)c1c(C)sc2nc(Cc3cccc(C(F)(F)F)c3F)cc(=O)n12 [Example 21.4] | 7.4 | 129
